Structures can show the parent of a compound that is named as a salt.
Key:
Type in all cases: cell-based, SARS-CoV-2; human
[1] = biological target: 2019-nCoV S-RBD/hACE2 (Severe acute respiratory syndrome coronavirus 2, UniProt P0DTC2)
[2] = biological target: Delta (B.1.617.2) S-RBD/hACE2 (Severe acute respiratory syndrome coronavirus 2, UniProt P0DTC2, L452R/T478K)
[3] = biological target: Omicron (BA.5) S-RBD/hACE2 (Severe acute respiratory syndrome coronavirus 2, UniProt P0DTC2, D405N/E484A/F486V/G339D/K417N/L452R/N440K/N501Y/Q498R/R408S/S371F/S373P/S375F/S477N/T376A/T478K/Y505H)

SMILES | Effect on S-RBD/hACE2 colocalisation [1] | Effect on S-RBD/hACE2 colocalisation [2] | Effect on S-RBD/hACE2 colocalisation [3]
CC(OC(=O)OC1CCCCC1)OC(=O)C1=C(CSc2nnnn2CC[NH+](C)C)CSC2C(NC(=O)Cc3csc(N)n3)C(=O)N12 (stereo not drawn) [CTM-HCl, cefotiam hexetil hydrochloride] | showed similar effects against all tested strains | showed similar effects against all tested strains | showed similar effects against all tested strains
CCCCCCCCC=CCCCCCCCC(=O)OCC(C[N+](C)(C)C)OC(=O)CCCCCCCC=CCCCCCCCC (stereo not drawn) [DOTAP, DOTAP chloride] | reduced colocalisation to all three S-RBD variants in a concentration-dependent manner | reduced colocalisation to all three S-RBD variants in a concentration-dependent manner | reduced colocalisation to all three S-RBD variants in a concentration-dependent manner
